Laboratory results reported in article PMC11641365, “Evaluation of In Vitro Biological Activity of Flavanone/Chromanone Derivatives: Molecular Analysis of Anticancer Mechanisms in Colorectal Cancer” (International Journal of Molecular Sciences, 2024).

Columns and labels:
Type in all cases: cell-based, human
[1] = tested on: HMEC-1; test: MTT cell viability assay, model of normal cells; conditions: difference of IC50 values
Protocol: The cytotoxic activity of the 3-benzylideneflavanones, 3-benzylidenechromanones derivatives (compounds 1, 2, 3, 4, 5) and 5′-(3-methoxyphenyl)-2-phenyl-4′,5′-dihydro-4H-spiro[chromano-3,3′-pirazol]-4-one (compound 3a) was evaluated using the MTT assay (4,5-dimethylthiazol-2-yl)-2,5-diphenyltetrazoliumbromide), a colorimetric method that quantifies cell viability.
Cell viability was determined using the metabolic microplate spectrophotometric assay with Methylthiazolyl diphenyltetrazolium bromide (MTT) (Sigma-Aldrich; St. Louis, MO, USA). The MTT method belongs to metabolic tests for determining cell viability and consists of measuring the absorbance of a violet solution of formazan, a product of the reduction of a water-soluble yellow MTT by oxidoreductive enzymes (mainly mitochondrial succinate dehydrogenase) of living cells. […]
The appropriate number of cells for a given cell line (6–8 × 10^3 cells/mL) were seeded onto colorless, sterile 96-well microplates (Nunc, Roskilde, Denmark) in the number appropriate for a given cell line. […] The absorbance of the formazan solution, after gentle mixing, was read at a wavelength of λ = 580 nm and a reference wavelength of λ = 720 nm (Biotek Power Wave HT, Biotek Instruments, Winooski, VT, USA). […] The absorbance of the control was taken as 100%.

[2] = tested on: SW620; test: Alkaline comet assay (DNA damage); conditions: compound at IC50, 12 h, vs control group
Description: Single-cell gel electrophoresis, also known as the comet assay, is a rapid and sensitive method for assessing DNA damage at the single-cell level. Cells are lysed and electrophoresed. Both single-strand and double-strand breaks are detected under alkaline conditions. The released DNA is denatured and moves in the agarose gel toward the anode during electrophoresis. The image, obtained after staining with the fluorescent dye 4′,6-diamidino-2-phenylindole (DAPI), resembles a “comet” with a distinct “head” (intact DNA) and “tail” (damaged DNA fragments). The length of the tail depends on the number and size of the broken DNA strands.
Cells (1 × 10^3) were seeded in 35 mm dishes and cultured in the medium for 24 h to attain the logarithmic growth phase. […] Quantitative analysis of the DNA comet image of preparations stained with DAPI solution (2 μg/L) was performed using a camera connected to a fluorescence microscope. The comet DNA analysis was performed under a Nikon Eclipse fluorescence microscope (Nikon, Tokyo, Japan) equipped with a 4910 COHU video camera (Cohu, Inc., San Diego, CA, USA) and a computer with Lucia-Comet v. […] Each time, from each preparation, 100 randomly selected comets were counted. The extent of DNA damage is quantified by measuring the length of the comet tail and the amount of DNA it contains. […]

[3] = tested on: SW620; test: Hydrogen peroxide level, H2DCFDA probe; conditions: compound at IC50, 24 h, vs control

O=C1/C(=C/c2ccccc2)COc2ccccc21 [Compound 1]
IC50 against HMEC-1 higher than for the majority of tested cancer cell lines (selectivity) [1]: approximately 10 µM

COc1cccc(/C=C2/C(=O)c3ccccc3OC2c2ccccc2)c1 (stereo not drawn) [Compound 3]
Increase in DNA content in the comet tail [2]: approximately 40%

O=C1/C(=C/c2ccccc2)C(c2ccccc2)Oc2ccccc21 (stereo not drawn) [Compound 5]
Increase in H2O2 levels [3]: 15%
